From patent publication US10808017B2, “Ubiquitin variants and uses therof as 53BP1 inhibitors” (The Governing Council of the University of Toronto, priority 2016, dated 2020)
“Also recorded” adds a separate entry of the source.

Key:
[1] = molecular target: T1, GSPT1 (Homo sapiens, UniProt P15170); experiment: Flag IP-MS of i53/i53-DM baits: prey GSPT1; format: binding; conditions: 293T Flp-In/T-Rex extracts, LC-MS/MS, one column per replicate IP
T1 construct: endogenous in cells; host or cells: HEK293 Flp-In/T-REx
Description: (§1) Following immunoprecipitation of Flag-tagged i53 and i-53-DM from HEK293 Flp-In/T-REx cells, peptides were identified using LC-MS/MS. Proteins were digested in solution with trypsin (Sigma, T7575-1KT) and dried to completeness. For LC-MS/MS analysis, peptides were reconstituted in 5% formic acid and loaded onto a 12-15 cm fused silica column with pulled tip packed in-house with 3.5 μm Zorbax C18 (Agilent Technologies, Calif., USA).
(§2) i53 and i53-DM precipitates were analyzed using an LTQ (Thermo Scientific) coupled to an Agilent 1100 Series HPLC (Agilent Technologies). Peptides were eluted from the column using a 90 min period cycle with a linear gradient from 0% to 40% ACN in 0.1% formic acid. Tandem MS spectra were acquired in a data-dependent mode for the top 5 (LTQ) most abundant ions using collision-induced dissociation. Acquired spectra were searched against the human Refseq_V53 database using Mascot (Matrix Science).
(§3) 293T Flp-In/T-Rex cell lines were generated that expressed Flag-tagged i53 or i53-DM under the control of a tetracycline-inducible promoter as previously described. Nine IP-MS experiments were analyzed (3 biological replicate IPs each for control i53- and i53-DM expressing cell lines). The interacting proteins were identified by MASCOT to identify high-confidence interactors for i53. […]

[2] = test system: gene targeting at the LMNA locus in U2OS cells; experiment: LMNA mClover gene targeting assay (CRISPR/Cas9); format: cell-based
Description: FIG. 4. Activation of HR by i53. FIG. 4A, Schematic of the DR-GFP assay. FIG. 4B. U2OS DR-GFP cells were transfected with the vectors expressing i53, the DM mutant or an empty vector control (EV) along with an I-Scel expression vector. The percentage of GFP-positive cells was determined 48 h post-transfection for each condition and was normalized to the empty vector condition (mean±s.d., N=4). FIG. 4C, U2OS DR-GFP were first transfected with siRNAs targeting the 53BP1 or BRCA1 mRNAs along with a non-targeting siRNA (CTRL). 24 h post-transfection, cells were transfected with the I-SceI expression vector and the percentage of GFP-positive cells was determined 48 h post-siRNA transfection for each condition. The values were normalized to the empty vector condition and presented as the mean±s.e.m; N=4. FIG. 4D, Schematic of the gene targeting assay. FIG. 4E, Gene targeting efficiency at the LMNA locus in parental or 53BP1Δ U2OS cells following transfection with vectors expressing Flag-tagged i53 or its DM mutant or an empty vector control (EV). The DNA-PK inhibitor NU7441 was also added where indicated. 24 h post-transfection, cells were analysed for mClover fluorescence. Individual experiments are presented with the error bar representing the s.d., (N=3). FIG. 4F, Gene targeting at the LMNA locus in G 1-arrested parental (WT) or 53BP1Δ U2OS cells transfected with vectors expressing Flag-tagged i53 or its DM mutant or an empty vector control (EV). The DNA-PK inhibitor NU7441 was also added in the indicated conditions. 24 h post-transfection, cells were analysed for mClover fluorescence. Individual experiments are present with the error bar representing the s.d., (N=3).
The Lamin A (LMNA) assay to measure the frequency of introduction of the coding sequence for mClover at the 5′ end of LMNA using the CRISPR/Cas9 was performed as previously described4. Parental or 53BP1Δ U2OS cell lines were transfected with the indicated plasmids using Lipofectamine RNAiMAX (Invitrogen). 24 h later, the cells were electroporated with 2.5 μg of sgRNA plasmids and 2.5 μg of donor template using a Nucleofector (Lonza; protocol X-001). Parental or 53BP1Δ U2OS cells stably expressing CtIP-T847E mutant were transfected with an siRNA against KEAP1 and the indicated plasmids and processed as previously described.

[3] = test system: γ-H2AX focus formation in U2OS cells; experiment: Ionizing radiation focus formation, γ-H2AX (immunofluorescence); format: cell-based; conditions: transfected U2OS cells, 10 Gy, 1 h post-irradiation
Description: FIG. 3. The i53 protein inhibits 53BP1. FIG. 3A-B, U2OS cells were transfected with vectors expressing i53, its 53BP1-binding deficient mutant (DM) or an empty vector (EV) control. Cells were then X-irradiated with a 10 Gy dose and processed for immunofluorescence with the indicated antibodies 1 h post-irradiation (IR). DAPI staining (not shown) was used to delineate the outline (dashed lines) of the cell nuclei. The region in the magnified inset is indicated with a square. Quantitation of the experiment is shown in panel (a) and data is indicated as the mean±s.e.m (N=3), whereas in (b) representative micrographs are shown. Arrowheads indicate Flag-positive cells. FIG. 3C, Parental or 53BP1ΔU2OS cells transfected with vectors expressing i53, the DM mutant or an empty vector (EV) control were irradiated (10 Gy) 1 h before being processed for immunofluorescence. Cell cycle stage was assessed by Cyclin A staining. The data is presented as the mean±s.e.m.; N=3. FIG. 3D, Immunoprecipitation (IP) of Flag-tagged proteins from extracts prepared from 293T cells transfected with vectors expressing Flag-i53 or the i53-DM mutant. Proteins were separated by SDS-PAGE and immunoblotted (IB) for Flag and 53BP1. […]

[4] = molecular target: T2, DLEC1 (Homo sapiens, UniProt Q9Y238); experiment: Flag IP-MS of i53/i53-DM baits: prey DLEC1; format: binding; conditions: 293T Flp-In/T-Rex extracts, LC-MS/MS, one column per replicate IP
T2 construct: endogenous in cells; host or cells: HEK293 Flp-In/T-REx cells
Description: as §1, §2, §3

[5] = molecular target: T3, FMR1 (Homo sapiens, UniProt Q06787); experiment: Flag IP-MS of i53/i53-DM baits: prey FMR1; format: binding; conditions: 293T Flp-In/T-Rex extracts, LC-MS/MS, one column per replicate IP
T3 construct: endogenous in cells; host or cells: HEK293 Flp-In/T-REx cells
Description: as §1, §2, §3

[6] = molecular target: T4, INTS3 (Homo sapiens, UniProt Q68E01); experiment: Flag IP-MS of i53/i53-DM baits: prey INTS3; format: binding; conditions: 293T Flp-In/T-Rex extracts, LC-MS/MS, one column per replicate IP
T4 construct: Following immunoprecipitation of Flag-tagged i53 and i-53-DM from HEK293 Flp-In/T-REx cells, peptides were identified using LC-MS/MS; endogenous in cells; host or cells: HEK293 Flp-In/T-REx cells
Description: as §1, §2, §3

T4 sequence (Q68E01 whole entry): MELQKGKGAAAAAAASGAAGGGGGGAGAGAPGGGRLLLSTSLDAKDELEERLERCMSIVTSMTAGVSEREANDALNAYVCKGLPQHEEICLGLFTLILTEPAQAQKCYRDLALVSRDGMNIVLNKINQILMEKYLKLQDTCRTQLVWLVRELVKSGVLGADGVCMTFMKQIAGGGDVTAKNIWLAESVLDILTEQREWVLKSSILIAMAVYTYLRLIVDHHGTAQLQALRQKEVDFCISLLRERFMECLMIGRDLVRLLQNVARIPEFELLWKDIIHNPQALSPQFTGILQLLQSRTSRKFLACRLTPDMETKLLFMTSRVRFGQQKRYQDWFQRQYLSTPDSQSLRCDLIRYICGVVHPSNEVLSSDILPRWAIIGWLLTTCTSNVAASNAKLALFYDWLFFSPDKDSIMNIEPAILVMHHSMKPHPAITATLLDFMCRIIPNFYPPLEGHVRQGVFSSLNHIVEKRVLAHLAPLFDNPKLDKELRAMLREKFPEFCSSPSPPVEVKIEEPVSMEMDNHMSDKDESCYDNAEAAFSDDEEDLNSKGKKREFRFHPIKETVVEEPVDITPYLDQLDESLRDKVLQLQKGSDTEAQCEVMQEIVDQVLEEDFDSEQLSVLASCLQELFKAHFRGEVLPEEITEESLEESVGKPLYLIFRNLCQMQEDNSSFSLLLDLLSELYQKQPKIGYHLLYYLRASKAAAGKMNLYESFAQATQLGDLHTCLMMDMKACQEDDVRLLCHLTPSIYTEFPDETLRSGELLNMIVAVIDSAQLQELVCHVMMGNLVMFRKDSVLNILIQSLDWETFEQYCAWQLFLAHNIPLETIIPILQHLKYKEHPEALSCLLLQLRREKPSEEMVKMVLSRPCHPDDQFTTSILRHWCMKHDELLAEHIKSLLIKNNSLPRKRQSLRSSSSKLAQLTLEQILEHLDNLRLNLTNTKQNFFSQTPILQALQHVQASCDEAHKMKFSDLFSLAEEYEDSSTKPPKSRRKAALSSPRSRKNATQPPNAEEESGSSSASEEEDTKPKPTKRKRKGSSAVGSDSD
T1 sequence (P15170 whole entry): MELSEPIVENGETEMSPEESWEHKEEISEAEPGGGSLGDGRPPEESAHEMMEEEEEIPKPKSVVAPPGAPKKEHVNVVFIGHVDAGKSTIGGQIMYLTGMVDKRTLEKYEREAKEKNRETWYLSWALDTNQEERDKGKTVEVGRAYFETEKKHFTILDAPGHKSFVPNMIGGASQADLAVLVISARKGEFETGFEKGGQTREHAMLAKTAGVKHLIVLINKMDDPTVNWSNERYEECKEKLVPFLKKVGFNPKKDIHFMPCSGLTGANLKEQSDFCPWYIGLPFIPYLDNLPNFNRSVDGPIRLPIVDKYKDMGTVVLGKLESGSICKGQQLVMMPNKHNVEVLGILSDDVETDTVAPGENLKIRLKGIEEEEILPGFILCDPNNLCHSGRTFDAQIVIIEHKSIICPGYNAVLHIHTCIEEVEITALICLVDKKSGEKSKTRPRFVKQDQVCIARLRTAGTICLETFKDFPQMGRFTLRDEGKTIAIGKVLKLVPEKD
T2 sequence (Q9Y238 whole entry): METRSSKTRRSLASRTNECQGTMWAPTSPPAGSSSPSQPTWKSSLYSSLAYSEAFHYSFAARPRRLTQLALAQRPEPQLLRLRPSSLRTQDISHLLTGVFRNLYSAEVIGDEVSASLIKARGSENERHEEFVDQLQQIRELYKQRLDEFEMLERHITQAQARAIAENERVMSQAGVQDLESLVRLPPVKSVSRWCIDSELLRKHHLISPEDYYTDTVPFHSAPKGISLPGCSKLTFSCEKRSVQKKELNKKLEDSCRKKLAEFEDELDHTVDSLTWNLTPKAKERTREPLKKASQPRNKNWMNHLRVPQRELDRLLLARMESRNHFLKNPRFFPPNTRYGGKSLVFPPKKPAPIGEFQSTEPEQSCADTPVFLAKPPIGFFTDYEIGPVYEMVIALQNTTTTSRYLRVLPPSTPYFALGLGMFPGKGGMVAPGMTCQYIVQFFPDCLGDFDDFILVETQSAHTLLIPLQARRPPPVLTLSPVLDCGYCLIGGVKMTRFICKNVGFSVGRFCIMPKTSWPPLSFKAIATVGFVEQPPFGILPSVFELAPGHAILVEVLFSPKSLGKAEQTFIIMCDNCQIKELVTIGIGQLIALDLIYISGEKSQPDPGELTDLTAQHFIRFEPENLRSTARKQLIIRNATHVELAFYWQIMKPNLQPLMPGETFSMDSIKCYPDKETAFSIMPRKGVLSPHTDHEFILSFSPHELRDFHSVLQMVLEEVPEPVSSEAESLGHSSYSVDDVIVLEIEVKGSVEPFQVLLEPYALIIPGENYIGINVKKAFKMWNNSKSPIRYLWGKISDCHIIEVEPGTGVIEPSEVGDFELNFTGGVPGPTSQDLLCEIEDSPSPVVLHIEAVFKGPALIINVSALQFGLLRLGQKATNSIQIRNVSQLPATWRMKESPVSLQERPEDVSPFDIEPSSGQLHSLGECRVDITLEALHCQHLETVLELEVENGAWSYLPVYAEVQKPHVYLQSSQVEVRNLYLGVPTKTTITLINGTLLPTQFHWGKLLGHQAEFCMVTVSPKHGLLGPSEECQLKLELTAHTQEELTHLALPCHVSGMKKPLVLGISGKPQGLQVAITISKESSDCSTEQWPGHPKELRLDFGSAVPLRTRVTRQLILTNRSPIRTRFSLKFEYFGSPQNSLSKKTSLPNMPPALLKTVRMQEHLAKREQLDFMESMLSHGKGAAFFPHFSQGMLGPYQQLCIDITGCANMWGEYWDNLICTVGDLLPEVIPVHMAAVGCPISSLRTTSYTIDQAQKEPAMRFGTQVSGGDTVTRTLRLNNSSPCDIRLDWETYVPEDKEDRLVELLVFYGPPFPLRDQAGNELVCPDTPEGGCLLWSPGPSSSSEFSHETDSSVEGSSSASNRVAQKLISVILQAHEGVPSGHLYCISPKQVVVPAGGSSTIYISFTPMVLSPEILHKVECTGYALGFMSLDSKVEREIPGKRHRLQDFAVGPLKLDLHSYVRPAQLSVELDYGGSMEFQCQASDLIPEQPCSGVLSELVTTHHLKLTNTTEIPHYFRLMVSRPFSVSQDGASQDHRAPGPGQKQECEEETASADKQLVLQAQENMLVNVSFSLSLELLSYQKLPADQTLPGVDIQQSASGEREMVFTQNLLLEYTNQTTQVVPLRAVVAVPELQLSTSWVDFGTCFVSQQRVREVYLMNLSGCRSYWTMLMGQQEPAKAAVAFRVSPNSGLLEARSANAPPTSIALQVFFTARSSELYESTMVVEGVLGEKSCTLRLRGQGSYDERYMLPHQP

Row | Total peptides, GSPT1 [1] | Total peptides, DLEC1 [4] | Total peptides, FMR1 [5] | Total peptides, INTS3 [6] | Substance | Gene targeting at the LMNA locus in 53BP1Δ cells ([2]; 53BP1Δ U2OS cells) | Cas9-stimulated gene targeting at the LMNA locus in G1 ([2]; G1-arrested U2OS cells expressing CtIP-T847E, KEAP1 siRNA, compared with 53BP1 knockout) | Gene targeting at the LMNA locus, i53 combined with DNA-PK inhibition ([2]; i53 plus NU7441 (10 μM)) | Change of gene targeting at the LMNA locus (in words) ([2]; parental U2OS cells, NU7441 at 10 μM) | Gene targeting efficiency at the LMNA locus (mClover-positive cells) ([2]; parental U2OS cells, empty vector control 4.79% +/−0.5%) | γ-H2AX focus formation [3]
1 | 3 | – | – | – | i53: UbvG08 with C-terminal di-glycine removed and I44A mutation; genetically encoded inhibitor of 53BP1 | did not result in a further increase in gene targeting | nearly as efficient as the 53BP1 knockout | additive increase in gene targeting | nearly two-fold; also recorded: approached that of 53BP1-null cells | 8.58% | did not impact
2 | – | 2 | 6 | 3 | i53-DM: 53BP1-binding deficient mutant of i53 (P69L, L70V) | – | – | – | – | – | –
